From ChEMBL document CHEMBL4270557, “Discovery of potent anti-convulsant carbonic anhydrase inhibitors: Design, synthesis, in vitro and in vivo appraisal” (Eur J Med Chem, 2018)

Columns and labels:
Carbonic anhydrase 9 = Carbonic anhydrase 9 (Homo sapiens, UniProt Q16790); assay: Inhibition of human recombinant carbonic anhydrase 9 assessed as CO2 hydration preincubated for 15 mins prior to testing measured for 10 to 100 secs by phenol red dye-based stopped-flow assay
Carbonic anhydrase 2 = Carbonic anhydrase 2 (Homo sapiens, UniProt P00918); assay: Inhibition of human recombinant carbonic anhydrase 2 assessed as CO2 hydration preincubated for 15 mins prior to testing measured for 10 to 100 secs by phenol red dye-based stopped-flow assay
Carbonic anhydrase 1 = Carbonic anhydrase 1 (Homo sapiens, UniProt P00915); assay: Inhibition of human recombinant carbonic anhydrase 1 assessed as CO2 hydration preincubated for 15 mins prior to testing measured for 10 to 100 secs by phenol red dye-based stopped-flow assay
Sequence of Carbonic anhydrase 1 (P00915 whole entry): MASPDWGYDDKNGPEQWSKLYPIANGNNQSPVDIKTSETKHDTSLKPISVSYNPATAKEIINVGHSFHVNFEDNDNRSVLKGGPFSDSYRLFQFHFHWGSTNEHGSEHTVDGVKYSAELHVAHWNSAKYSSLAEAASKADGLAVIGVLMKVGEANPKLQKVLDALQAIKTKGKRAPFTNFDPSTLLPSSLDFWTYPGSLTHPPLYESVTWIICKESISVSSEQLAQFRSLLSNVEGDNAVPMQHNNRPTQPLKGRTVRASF

Carbonic anhydrase 7 = Carbonic anhydrase 7 (Homo sapiens, UniProt P43166); assay: Inhibition of human recombinant carbonic anhydrase 7 assessed as CO2 hydration preincubated for 15 mins prior to testing measured for 10 to 100 secs by phenol red dye-based stopped-flow assay
Sequence of Carbonic anhydrase 7 (P43166 whole entry): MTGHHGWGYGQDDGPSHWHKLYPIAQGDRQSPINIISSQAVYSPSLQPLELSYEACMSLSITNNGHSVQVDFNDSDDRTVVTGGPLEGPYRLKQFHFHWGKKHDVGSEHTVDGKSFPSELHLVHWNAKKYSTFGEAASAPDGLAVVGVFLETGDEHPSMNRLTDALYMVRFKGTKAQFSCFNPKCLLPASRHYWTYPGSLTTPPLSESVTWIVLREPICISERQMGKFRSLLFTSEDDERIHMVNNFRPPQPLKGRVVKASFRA

Mus musculus [1] = assay: Anticonvulsant activity in Swiss albino mouse assessed as protection against subcutaneous PTZ-induced seizures at 100 mg/kg, ip administered 3 hrs prior to PTZ-induction relative to control; format: functional
Mus musculus [2] = assay: Anticonvulsant activity in Swiss albino mouse assessed as protection against maximal electroshock-induced seizures at 100 mg/kg, ip administered 0.5 hrs prior to 50 mA current induction relative to control; format: functional
Mus musculus [3] = assay: Anticonvulsant activity in Swiss albino mouse assessed as protection against maximal electroshock-induced seizures at 100 mg/kg, ip administered 3 hrs prior to 50 mA current induction relative to control; format: functional
Mus musculus [4] = assay: Anticonvulsant activity in Swiss albino mouse assessed as protection against subcutaneous PTZ-induced seizures at 30 mg/kg, ip administered 3 hrs prior to PTZ-induction relative to control; format: functional
Mus musculus [5] = assay: Anticonvulsant activity in Swiss albino mouse assessed as protection against maximal electroshock-induced seizures at 30 mg/kg, ip administered 3 hrs prior to 50 mA current induction relative to control
Mus musculus [6] = assay: Anticonvulsant activity in Swiss albino mouse assessed as protection against maximal electroshock-induced seizures at 30 mg/kg, ip administered 0.5 hrs prior to 50 mA current induction relative to control
Mus musculus [7] = assay: Anticonvulsant activity in Swiss albino mouse assessed as protection against maximal electroshock-induced seizures at 100 mg/kg, ip administered 3 hrs prior to 50 mA current induction relative to control
Mus musculus [8] = assay: Anticonvulsant activity in Swiss albino mouse assessed as protection against maximal electroshock-induced seizures at 30 mg/kg, ip administered 3 hrs prior to 50 mA current induction relative to control; format: functional
Mus musculus [9] = assay: Anticonvulsant activity in Swiss albino mouse assessed as protection against subcutaneous PTZ-induced seizures at 30 mg/kg, ip administered 0.5 hrs prior to PTZ-induction relative to control; format: functional
Mus musculus [10] = assay: Anticonvulsant activity in Swiss albino mouse assessed as protection against maximal electroshock-induced seizures at 100 mg/kg, ip administered 0.5 hrs prior to 50 mA current induction relative to control
Mus musculus [11] = assay: Anticonvulsant activity in Swiss albino mouse assessed as protection against subcutaneous PTZ-induced seizures at 100 mg/kg, ip administered 0.5 hrs prior to PTZ-induction relative to control; format: functional
Mus musculus [12] = assay: Anticonvulsant activity in Swiss albino mouse assessed as protection against maximal electroshock-induced seizures at 30 mg/kg, ip administered 0.5 hrs prior to 50 mA current induction relative to control; format: functional

| SMILES | Ki (Carbonic anhydrase 9) [nM] | Ki (Carbonic anhydrase 2) [nM] | Ki (Carbonic anhydrase 1) [nM] | Ki (Carbonic anhydrase 7) [nM] | other results |
| --- | --- | --- | --- | --- | --- |
| NS(=O)(=O)c1ccc(C(=O)N/N=C/c2ccc(N3CCN(c4ccccn4)CC3)cc2)cc1 | 152 | 4560 | > 10000 | 126 |  |
| NS(=O)(=O)c1ccc(N/N=C/c2ccc(N3CCN(c4ccccn4)CC3)cc2)cc1 | 235 | 4590 | > 10000 | 135 |  |
| NS(=O)(=O)c1ccc(C(=O)N/N=C/c2ccc(N3CCN(c4ccc(C(F)(F)F)cc4)CC3)cc2)cc1 | 1850 | 556 | 8160 | 148 |  |
| NS(=O)(=O)c1ccc(C(=O)N/N=C/c2ccc(N3CCN(c4ncccn4)CC3)cc2)cc1 | 1840 | 963 | 2060 | 132 |  |
| NS(=O)(=O)c1ccc(C(=O)N/N=C/c2ccc(N3CCN(c4ccc(F)cc4)CC3)cc2)cc1 | 1960 | 822 | 5800 | 147 |  |
| NS(=O)(=O)c1ccc(N/N=C/c2ccc(N3CCN(c4ccc(F)cc4)CC3)cc2)cc1 | 1270 | 559 | 2380 | 49.6 |  |
| NS(=O)(=O)c1ccc(N/N=C/c2ccc(N3CCN(C(=O)c4ccccc4)CC3)cc2)cc1 | 2490 | 2790 | > 10000 | 127 |  |
| NS(=O)(=O)c1ccc(C(=O)N/N=C/c2ccc(N3CCN(Cc4ccccc4)CC3)cc2)cc1 | 163 | 414 | 7100 | 41.5 |  |
| NS(=O)(=O)c1ccc(C(=O)N/N=C/c2ccc(N3CCN(c4ccccc4)CC3)cc2)cc1 | 276 | 4130 | > 10000 | 181 |  |
| NS(=O)(=O)c1ccc(N/N=C/c2ccc(N3CCN(C(=O)c4ccco4)CC3)cc2)cc1 | 1790 | 30.8 | 322 | 6.2 | Activity (Mus musculus [1]): 50%; Activity (Mus musculus [2]): 83%; Activity (Mus musculus [3]): 50%; Activity (Mus musculus [4]): 33%; Activity (Mus musculus [5]): 50%; Activity (Mus musculus [6]): 50%; Activity (Mus musculus [7]): 50%; Activity (Mus musculus [8]): 50%; Activity (Mus musculus [9]): 33%; Activity (Mus musculus [10]): 83%; Activity (Mus musculus [11]): 67%; Activity (Mus musculus [12]): 50% |
| NS(=O)(=O)c1ccc(C(=O)N/N=C/c2ccc(N3CCN(Cc4ccc5c(c4)OCO5)CC3)cc2)cc1 | 95.2 | 962 | 8370 | 751 |  |
| NS(=O)(=O)c1ccc(C(=O)N/N=C/c2ccc(N3CCN(C(=O)OCc4ccccc4)CC3)cc2)cc1 | 1900 | 1450 | 9640 | 121 |  |
| NS(=O)(=O)c1ccc(N/N=C/c2ccc(N3CCN(c4ccccc4)CC3)cc2)cc1 | 1240 | 888 | 7860 | 98.4 |  |

More lines, main results first:

| Ki (Carbonic anhydrase 9) [nM] | Ki (Carbonic anhydrase 2) [nM] | Ki (Carbonic anhydrase 1) [nM] | Ki (Carbonic anhydrase 7) [nM] | SMILES | other results |
| --- | --- | --- | --- | --- | --- |
| 1930 | 7520 | 9470 | 118 | NS(=O)(=O)c1ccc(N/N=C/c2ccc(N3CCN(c4ccc(C(F)(F)F)cc4)CC3)cc2)cc1 |  |
| 1740 | 553 | 4110 | 72 | Cc1ccc(N2CCN(c3ccc(/C=N/Nc4ccc(S(N)(=O)=O)cc4)cc3)CC2)c(C)c1 |  |
| 1630 | 93.9 | 920 | 11.4 | NS(=O)(=O)c1ccc(N/N=C/c2ccc(N3CCN(C(=O)OCc4ccccc4)CC3)cc2)cc1 | Activity (Mus musculus [1]): 33%; Activity (Mus musculus [2]): 50%; Activity (Mus musculus [3]): 67%; Activity (Mus musculus [4]): 67%; Activity (Mus musculus [5]): 33%; Activity (Mus musculus [6]): 50%; Activity (Mus musculus [7]): 67%; Activity (Mus musculus [8]): 33%; Activity (Mus musculus [9]): 50%; Activity (Mus musculus [10]): 50%; Activity (Mus musculus [11]): 67%; Activity (Mus musculus [12]): 50% |
| 2230 | 8400 | > 10000 | 607 | NS(=O)(=O)c1ccc(N/N=C/c2ccc(N3CCN(c4ncccn4)CC3)cc2)cc1 |  |
| 1050 | 308 | 5500 | 94.7 | NS(=O)(=O)c1ccc(C(=O)N/N=C/c2ccc(N3CCN(C(=O)c4ccccc4)CC3)cc2)cc1 |  |
| 30.4 | 686 | 9490 | 78.8 | NS(=O)(=O)c1ccc(C(=O)N/N=C/c2ccc(N3CCN(C(=O)c4ccco4)CC3)cc2)cc1 |  |
